In data set [1] the test system is Plasmodium falciparum. Kind of data set: Antimicrobial activity against chloroquine-sensitive Plasmodium falciparum 3D7 infected in human erythrocyte assessed as parasite viability at 6.25 to 25 ng/ml after 42 hrs by [3H]hypoxanthine incorporation based liquid scintillation counting analysis. Format: functional, organism-based.
Data set [2] concerns Plasmodium falciparum. The experiment in a line: Antimalarial activity against chloroquine-sensitive Plasmodium falciparum 3D7 infected in human erythrocyte assessed as parasite viability after 48 hrs by [3H]hypoxanthine incorporation based liquid scintillation counting analysis. Format: functional, organism-based.
Data set [3] addresses T1, Falcipain 2 (Plasmodium falciparum) (UniProt Q9N6S8).
T1 sequence (whole entry): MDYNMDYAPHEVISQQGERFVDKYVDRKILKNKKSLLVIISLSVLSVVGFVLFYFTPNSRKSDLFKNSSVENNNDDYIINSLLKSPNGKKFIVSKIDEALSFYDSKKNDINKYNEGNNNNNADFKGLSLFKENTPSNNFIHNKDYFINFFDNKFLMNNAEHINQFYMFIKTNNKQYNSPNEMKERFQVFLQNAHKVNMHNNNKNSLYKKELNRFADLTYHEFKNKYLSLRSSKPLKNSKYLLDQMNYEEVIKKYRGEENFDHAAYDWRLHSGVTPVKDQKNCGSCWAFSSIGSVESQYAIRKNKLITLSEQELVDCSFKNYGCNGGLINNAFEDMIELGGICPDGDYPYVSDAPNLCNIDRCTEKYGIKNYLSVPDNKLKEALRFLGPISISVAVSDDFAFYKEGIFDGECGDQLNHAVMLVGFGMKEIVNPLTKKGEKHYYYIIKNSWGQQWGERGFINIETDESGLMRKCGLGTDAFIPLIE
The experiment in a line: Inhibition of Plasmodium falciparum Falcipain 2 at 500 nM by hemoglobin hydrolysis assay.

The target of data set [4] is T1, Falcipain 2 (Plasmodium falciparum). Kind of data set: Inhibition of Plasmodium falciparum Falcipain 2 using Z-Leu-Arg-AMC substrate assessed as fluorogenic substrate hydrolysis.
Data set [5] has the same target. Kind of data set: Inhibition of Plasmodium falciparum Falcipain 2 at 5 nM by hemoglobin hydrolysis assay.
Data set [6] has as its system Plasmodium falciparum. The experiment in a line: Antimicrobial activity against blood stage chloroquine-sensitive Plasmodium falciparum 3D7 infected in human erythrocyte assessed as abnormal morphologies at 43.68 uM after 6 hrs by Giemsa staining based light microscopy. Format: functional, organism-based.
In data set [7] the test system is Plasmodium falciparum. The experiment in a line: Antimicrobial activity against ring stage trophozoite chloroquine-sensitive Plasmodium falciparum 3D7 infected in human erythrocyte assessed as abnormal morphologies at 21.8 uM after 16 hrs by Giemsa staining based light microscopy. Format: functional, organism-based.
For data set [8], the system named is Plasmodium falciparum. The experiment in a line: Antimicrobial activity against blood stage chloroquine-sensitive Plasmodium falciparum 3D7 infected in human erythrocyte assessed as inhibition of invasion event of merozoites after 6 hrs by Giemsa staining based light microscopy. Format: functional, organism-based.
Data set [9] can be described thus: Toxicity in human erythrocytes assessed as hemolytic activity up to 50 ug/ml after 42 hrs by spectrophotometric analysis. Format: cell-based. As to conditions: erythrocyte.
Data set [10] deals with Plasmodium falciparum. Kind of data set: Antimicrobial activity against ring stage trophozoite chloroquine-sensitive Plasmodium falciparum 3D7 infected in human erythrocyte assessed as abnormal morphologies at 43.68 uM after 16 hrs by Giemsa staining based light microscopy. Format: functional, organism-based.
Data set [11] relates to Plasmodium falciparum. The experiment in a line: Antimalarial activity against chloroquine-sensitive Plasmodium falciparum 3D7 infected in human erythrocyte assessed as parasite viability after 60 hrs by [3H]hypoxanthine incorporation based liquid scintillation counting analysis. Format: functional, organism-based.
Data set [12] has as its system Plasmodium falciparum. The experiment in a line: Antimalarial activity against chloroquine-sensitive Plasmodium falciparum 3D7 infected in human erythrocyte assessed as parasite viability after 90 hrs by [3H]hypoxanthine incorporation based liquid scintillation counting analysis. Format: functional, organism-based.
In data set [13] the test system is Plasmodium falciparum. Kind of data set: Antimicrobial activity against blood stage chloroquine-sensitive Plasmodium falciparum 3D7 infected in human erythrocyte assessed as abnormal morphologies at 21.8 uM after 6 hrs by Giemsa staining based light microscopy. Format: functional, organism-based.
Data set [14] concerns Plasmodium falciparum. Kind of data set: Antimicrobial activity against chloroquine-resistant Plasmodium falciparum 7G8 infected in human erythrocyte assessed as parasite viability after 48 hrs by [3H]hypoxanthine incorporation based liquid scintillation counting analysis. Format: functional.
The subject of data set [15] is Plasmodium falciparum. The experiment in a line: Antimicrobial activity against blood stage chloroquine-sensitive Plasmodium falciparum 3D7 infected in human erythrocyte assessed as abnormal morphologies at 27.64 uM after 6 hrs by Giemsa staining based light microscopy. Format: functional, organism-based.
The subject of data set [16] is Plasmodium falciparum. The experiment in a line: Antimicrobial activity against ring stage trophozoite chloroquine-sensitive Plasmodium falciparum 3D7 infected in human erythrocyte assessed as abnormal morphologies at 27.64 uM after 16 hrs by Giemsa staining based light microscopy. Format: functional, organism-based.
In data set [17] the test system is Plasmodium falciparum. The experiment in a line: Antimicrobial activity against ring stage trophozoite chloroquine-sensitive Plasmodium falciparum 3D7 infected in human erythrocyte assessed as abnormal morphologies at 55.28 uM after 16 hrs by Giemsa staining based light microscopy. Format: functional, organism-based.
The subject of data set [18] is Plasmodium falciparum. Kind of data set: Antimicrobial activity against chloroquine-sensitive Plasmodium falciparum 3D7 infected in human erythrocyte assessed as parasite viability after 42 hrs by [3H]hypoxanthine incorporation based liquid scintillation counting analysis in presence of 12.5 ng/ml. Format: functional, organism-based.
The test system of data set [19] is Plasmodium falciparum. The experiment in a line: Antimicrobial activity against chloroquine-sensitive Plasmodium falciparum 3D7 infected in human erythrocyte assessed as parasite viability after 42 hrs by [3H]hypoxanthine incorporation based liquid scintillation counting analysis in presence of 6.25 ng/ml. Format: functional, organism-based.
In data set [20] the test system is Plasmodium falciparum. Kind of data set: Antimicrobial activity against blood stage chloroquine-sensitive Plasmodium falciparum 3D7 infected in human erythrocyte assessed as abnormal morphologies at 55.28 uM after 6 hrs by Giemsa staining based light microscopy. Format: functional, organism-based.
Data set [21] has as its system Plasmodium falciparum. The experiment in a line: Antimicrobial activity against chloroquine-sensitive Plasmodium falciparum 3D7 infected in human erythrocyte assessed as parasite viability after 42 hrs by [3H]hypoxanthine incorporation based liquid scintillation counting analysis in presence of 25 ng/ml. Format: functional, organism-based.

The text below walks through data of ChEMBL document CHEMBL3400128, “Design, synthesis and biological evaluation of functionalized phthalimides: a new class of antimalarials and inhibitors of falcipain-2, a major hemoglobinase of malaria parasite” (Bioorg Med Chem, 2015).

Structures are written as SMILES. Values joined by “and” are separate entries in the source; they are usually repeats but may differ in a detail not shown here. Identical values can stand only once. Active and inactive are the calls of the source. The calls are words filed in the database; no cut-off is given here.

One may read the IC50 as the concentration at which inhibition is half-maximal. Regarding `C[C@@H]1CC[C@H]2[C@@H](C)C(=O)O[C@@H]3O[C@@]4(C)CC[C@@H]1[C@]32OO4` [ARTEMISININ], in the data set on Plasmodium falciparum [1], the inhibition result is “inactive”. Besides, the IC50 in the data set on Plasmodium falciparum [2] is 0.045 µg/mL and 159 nM.

On to `CC(C)C[C@@H](C(=O)N1CCN(C(=O)[C@H](CC(C)C)N2C(=O)c3ccccc3C2=O)CC1)N1C(=O)c2ccccc2C1=O`, for which the 50% inhibitory concentration (IC50) in the data set with Plasmodium falciparum [2] is 61 µg/mL and 203 µM.

In the case of `CC(C)[C@@H](C(=O)N1CCCC1)N1C(=O)c2ccccc2C1=O`, the IC50 in the data set with Plasmodium falciparum [2] is 42.5 µg/mL and 142 µM.

Take `CC[C@@H](C)[C@@H](C(=O)N1CCCCC1)N1C(=O)c2ccccc2C1=O`: the IC50 with Plasmodium falciparum [2] was 35 µg/mL and 107 µM.

Consider `CC(C)[C@@H](C(=O)N1CCOCC1)N1C(=O)c2ccccc2C1=O`, for which the half-maximal inhibitory concentration (IC50) with Plasmodium falciparum [2] was 65 µg/mL and 206 µM.

Turning to `O=C([C@H](Cc1ccccc1)N1C(=O)c2ccccc2C1=O)N1CCOCC1`, the inhibition result in data set [3], in [4] and in data set [5] was “Active” each time. Also, the concentration for half-maximal inhibition (IC50) in the data set with Plasmodium falciparum [2] was 18 µg/mL and 49.4 µM.

As to `CC(C)C[C@@H](C(=O)N1CCCC1)N1C(=O)c2ccccc2C1=O`, the IC50 with Plasmodium falciparum [2] is 74.2 µg/mL and 236 µM.

As to `CC[C@@H](C)[C@@H](C(=O)N1CCCC1)N1C(=O)c2ccccc2C1=O`, the IC50 in the data set with Plasmodium falciparum [2] is 46 µg/mL and 146 µM.

For the compound `O=C([C@H](Cc1ccccc1)N1C(=O)c2ccccc2C1=O)N1CCC(Cc2ccccc2)CC1`, the outcome with Plasmodium falciparum [6], in the data set with Plasmodium falciparum [7], in the data set with Plasmodium falciparum [10] and in the data set on Plasmodium falciparum [13] was Active. In addition, in the data set on Plasmodium falciparum [8], the inhibition entry is “Dose-dependent effect”. Also, in [9], the Activity result was “Non-toxic”. Moreover, the half-inhibitory concentration (IC50) in the data set with Plasmodium falciparum [11] was 5000 nM; in the data set on Plasmodium falciparum [2], 5.5 µg/mL and 12.2 µM; with Plasmodium falciparum [12], 3800 nM; with Plasmodium falciparum [14] it was 13300 nM.

For the compound `CC(C)[C@@H](C(=O)N1CCN(C(=O)[C@H](C(C)C)N2C(=O)c3ccccc3C2=O)CC1)N1C(=O)c2ccccc2C1=O`, the IC50 with Plasmodium falciparum [2] was 9.2 µg/mL and 16.9 µM.

`CC(C)[C@@H](C(=O)N1CCC(Cc2ccccc2)CC1)N1C(=O)c2ccccc2C1=O`: the IC50 in the data set on Plasmodium falciparum [2] was 19.5 µg/mL and 48.2 µM.

As for `CC(C)C[C@@H](C(=O)N1CCCCC1)N1C(=O)c2ccccc2C1=O`, the IC50 with Plasmodium falciparum [2] is 71.5 µg/mL and 218 µM.

`CC[C@H](C)[C@@H](C(=O)N1CCC(Cc2ccccc2)CC1)N1C(=O)c2ccccc2C1=O`: in the data set on Plasmodium falciparum [2], the concentration for half-maximal inhibition (IC50) was 22.5 µg/mL and 53.8 µM.

As to `CC(C)[C@@H](C(=O)N1CCCCC1)N1C(=O)c2ccccc2C1=O`, the IC50 in the data set on Plasmodium falciparum [2] is 41 µg/mL and 130 µM.

For `CC[C@@H](C)[C@@H](C(=O)N1CCN(C(=O)[C@H]([C@H](C)CC)N2C(=O)c3ccccc3C2=O)CC1)N1C(=O)c2ccccc2C1=O`, the inhibition entry in the data set with Plasmodium falciparum [8] was “Dose-dependent effect”. Besides, the Activity result in data set [9] is reported as “Non-toxic”. Further, the outcome in the data set on Plasmodium falciparum [15], with Plasmodium falciparum [16], in the data set with Plasmodium falciparum [17] and with Plasmodium falciparum [20] was Active. Further, the IC50 with Plasmodium falciparum [11] is 2000 nM; with Plasmodium falciparum [2], 3.42 µg/mL and 5.97 µM; in the data set with Plasmodium falciparum [12], 1100 nM; with Plasmodium falciparum [18], 1920 nM; in the data set with Plasmodium falciparum [14], 7210 nM; with Plasmodium falciparum [19], 2440 nM. Further, the IC50 in the data set with Plasmodium falciparum [21] worked out at 1390 nM.

Take `O=C([C@H](Cc1ccccc1)N1C(=O)c2ccccc2C1=O)N1CCCCC1`: in the data set on Plasmodium falciparum [2], the IC50 was 13 µg/mL and 36 µM.

Take `O=C([C@H](Cc1ccccc1)N1C(=O)c2ccccc2C1=O)N1CCCC1`: the inhibition entry in data set [3], in data set [4] and in [5] was “Active” throughout. Further, the half-inhibitory concentration (IC50) with Plasmodium falciparum [2] was 31.5 µg/mL and 87.6 µM.

As for `CC[C@@H](C)[C@@H](C(=O)N1CCOCC1)N1C(=O)c2ccccc2C1=O`, in the data set with Plasmodium falciparum [2], the IC50 was 20 µg/mL and 60.6 µM.

On to `CC(C)C[C@@H](C(=O)N1CCOCC1)N1C(=O)c2ccccc2C1=O`, for which the half-inhibitory concentration (IC50) in the data set on Plasmodium falciparum [2] was 46 µg/mL and 139 µM.

In the case of `O=C([C@H](Cc1ccccc1)N1C(=O)c2ccccc2C1=O)N1CCN(C(=O)[C@H](Cc2ccccc2)N2C(=O)c3ccccc3C2=O)CC1`, the inhibition result in [4] is “Active”. Further, the IC50 with Plasmodium falciparum [2] is 33.8 µg/mL and 52.7 µM.

Take `CC(C)C[C@@H](C(=O)N1CCC(Cc2ccccc2)CC1)N1C(=O)c2ccccc2C1=O`: the concentration for half-maximal inhibition (IC50) with Plasmodium falciparum [2] was 18.5 µg/mL and 44.2 µM.
